From patent US11142524B2, “Substituted-3H-imidazo[4,5-c]pyridine and 1H-pyrrolo[2,3-c]pyridine series of novel Ectonucleotide Pyrophosphatase/Phosphodiesterase-1 (ENPP1) and stimulator for interferon genes (STING) modulators as cancer immunotherapeutics” (Stingray Therapeutics, Inc., priority 2018, dated 2021)

Columns and labels:
ENPP1 protein [1] = target: T1, ENPP1 protein (Homo sapiens (Human), UniProt P22413); assay: ENPP1 Thermal Shift Assay (Example 1); type: binding; details: Table 2, FIG. 7, 100 μM drug, 1.0 μg ENPP1
Target sequence in this assay (P22413 whole entry, looked up, change not shown): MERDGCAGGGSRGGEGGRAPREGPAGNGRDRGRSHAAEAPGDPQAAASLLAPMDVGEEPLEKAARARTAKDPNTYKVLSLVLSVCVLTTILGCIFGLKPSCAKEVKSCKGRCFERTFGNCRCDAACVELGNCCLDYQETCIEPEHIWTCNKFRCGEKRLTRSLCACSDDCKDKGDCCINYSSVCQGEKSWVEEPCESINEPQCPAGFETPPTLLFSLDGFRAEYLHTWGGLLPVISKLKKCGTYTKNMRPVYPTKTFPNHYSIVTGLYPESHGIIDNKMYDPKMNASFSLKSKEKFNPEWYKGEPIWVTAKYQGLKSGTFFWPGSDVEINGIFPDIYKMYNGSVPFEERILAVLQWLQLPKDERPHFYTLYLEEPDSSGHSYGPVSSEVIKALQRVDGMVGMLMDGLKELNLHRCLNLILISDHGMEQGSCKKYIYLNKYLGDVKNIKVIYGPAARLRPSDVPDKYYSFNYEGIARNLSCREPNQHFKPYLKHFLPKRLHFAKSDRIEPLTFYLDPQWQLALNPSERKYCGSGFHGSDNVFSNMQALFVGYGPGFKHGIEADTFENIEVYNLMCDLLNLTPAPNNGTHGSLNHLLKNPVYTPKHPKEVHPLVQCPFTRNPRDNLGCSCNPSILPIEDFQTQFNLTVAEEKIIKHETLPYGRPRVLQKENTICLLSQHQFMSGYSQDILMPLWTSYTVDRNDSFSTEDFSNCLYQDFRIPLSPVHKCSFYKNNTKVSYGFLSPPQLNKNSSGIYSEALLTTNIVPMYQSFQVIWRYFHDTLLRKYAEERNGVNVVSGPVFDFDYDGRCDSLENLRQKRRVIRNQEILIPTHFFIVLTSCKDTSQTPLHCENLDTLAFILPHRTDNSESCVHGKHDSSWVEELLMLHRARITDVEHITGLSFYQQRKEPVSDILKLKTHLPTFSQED

ENPP1 protein [2] = target: T1, ENPP1 protein; assay: ENPP1 enzymatic assay with TMP substrate (FIG. 8); type: biochemical; details: 5.0 ng ENPP1, 150 μM TMP substrate
Experimental: FIG. 8 depicts results of a similar experiment. 5.0 ng of ENPP1 protein exposed to increasing doses of inhibitor (compound 78 or compound 107-02) for 10 minutes in solution, followed by the addition of 150 μM of TMP substrate. The assay was then incubated for 20 minutes and then read at 405 nm on the envision plate reader.
Target sequence in this assay (P22413 whole entry, looked up): as the sequence (P22413 whole entry, looked up, change not shown) above

B16F10 tumor = assay: Anti-tumor efficacy in B16F10 (melanoma) syngeneic model; type: in vivo, C57BL/6 mice
From the text: Animals: Female C57BL/6 (4-6 week's age from Taconic).
The B16F10 cells were propagated in DMEM cell culture medium containing 10% Fetal Bovine Serum. Cells were harvested in logarithmic growth phase and implanted subcutaneously ([…]) in the lower abdomen of mice. Tumor growth was monitored daily and after the tumors had reached 80 to 100 mm3, mice were randomized into groups consisting of 8 animals per group. Animals were euthanized when tumors reached around 2000 mm^3 or treatment regime completed or 20% of body weight loss, or developed ulceration and necrosis. Upon termination, tumor samples and blood were collected and analyzed for biomarkers.

ENPP1 protein [3] = target: T1, ENPP1 protein; assay: ENPP1 Inhibition Assay (thymidine 5′-monophosphate p-nitrophenol ester substrate); type: biochemical
Experimental: Assay Buffer: 1 mM CaCl2, 0.2 mM ZnCl2, 50 mM Tris, pH 9.0. Substrate: 8 mM Thymidine 5′-monophosphate p-nitrophenol ester sodium salt (Sigma Cat #T4510). Enzyme: 5 ng/L Recombinant Human ENPP-1 Protein (R&D Cat #6136-EN-010) in DMSO in 96-well clear assay plates
An eight point serial dilution of drugs was prepared in 10× in assay buffer with the final assay concentrations starting at 10 μM, 3 μM, 1 μM, 0.3 μM . . . 0 μM. A dilution of DMSO was included as a control. The assay plate was set up as follows with each well in duplicate: 81 μL assay buffer+10 μL ENPP1 inhibitor or DMSO+5 μL Substrate+4 μL Enzyme. Both the enzyme and substrate were added to opposite sides of the well to ensure that there was no interaction until all wells had both components. The plate was then centrifuged gently for 10 seconds, followed by an incubation at 37° C. for 45 minutes. The reaction was quantified by measuring absorbance at 405 nm using the Envision.
IC50 values are determined using GraphPad Prism 5 software. The data were entered as an X-Y plot into the software as percent inhibition for each concentration of the drug. The concentration values of the drug were log transformed and the nonlinear regression was carried out using the “sigmoidal dose-response (variable slope)” option within the GraphPad software to model the data and calculate IC50 values. The IC50 values reported are the concentration of drug at which 50% inhibition was reached.
Target sequence in this assay (P22413 whole entry, looked up, change not shown): as above

- Tm (° C.) (ENPP1 protein [1]; NT 60.05): 61.16 °C
- ΔTm at 100 µM (ENPP1 protein [1]; read-out: ΔTm (° C.)): 1.11 °C
- enzymatic activity (ENPP1 protein [2]): significant decrease
- inhibiting the activity of ENPP1 (ENPP1 protein [3]; FIG. 1): effective
- IC50 (ENPP1 protein [3]; Table 1, FIG. 1, read-out: IC50): 79.7 nM
SMILES: COc1ccc(NC(=O)CSc2nc3c(C)c(C#N)ncc3[nH]2)cc1O [Compound 78, 2-((6-Cyano-7-methyl-3H-imidazo[4,5-c]pyridin-2-yl)thio)-N-(3-hydroxy-4-methoxyphenyl) acetamide]
- B16F10 tumor growth inhibition (B16F10 tumor; 30 mg/kg dose (FIG. 6A / FIG. 13A)): 28%
- B16F10 tumor growth inhibition (B16F10 tumor; FIG. 6B / FIG. 13B, dose and route not stated): 27%
